From ChEMBL document CHEMBL4304778 (Eur J Med Chem, 2019)

Tests used:
[1] = system: M21; assay: Antiproliferative activity against human M21 cells bt MTT assay; assay type: functional, cell-based
[2] = system: MCF7; assay: Antitumor activity against human MCF7 cells by MTT assay; assay type: functional, cell-based
[3] = system: PC-3; assay: Antitumor activity against human PC3 cells by MTT assay; assay type: functional, cell-based
[4] = system: HepG2; assay: Antitumor activity against human HepG2 cells by MTT assay; assay type: functional, cell-based
[5] = system: HepG2; assay: Cytotoxicity against human HepG2 cells after 24 hrs by MTT assay; assay type: functional, cell-based; settings: HepG2, 24 h
[6] = system: SMMC-7721; assay: Cytotoxicity against human SMMC7721 cells after 24 hrs by MTT assay; assay type: functional, cell-based; settings: SMMC-7721, 24 h
[7] = biological target: Vascular endothelial growth factor receptor 1 (Homo sapiens, UniProt P17948); assay: Inhibition of VEGFR1 (unknown origin)
[8] = system: PLC; assay: Cytotoxicity against human PLC cells; assay type: functional, cell-based
[9] = Induction of apoptosis in human PLC5 cells relative to control; assay type: functional
[10] = biological target: Signal transducer and activator of transcription 3 (Homo sapiens) (UniProt P40763); assay: Activation of STAT3 phosphorylation at Y705 residue in human Huh7 cells relative to control; assay type: cell-based
[11] = system: Hep 3B2; assay: Induction of apoptosis in human Hep3B cells relative to control; assay type: functional
[12] = system: HepG2; assay: Induction of apoptosis in human HepG2 cells relative to control; assay type: functional
[13] = biological target: Vascular endothelial growth factor receptor 3 (Homo sapiens, UniProt P35916); assay: Inhibition of VEGFR3 (unknown origin)
Sequence of Vascular endothelial growth factor receptor 3 (P35916 whole entry): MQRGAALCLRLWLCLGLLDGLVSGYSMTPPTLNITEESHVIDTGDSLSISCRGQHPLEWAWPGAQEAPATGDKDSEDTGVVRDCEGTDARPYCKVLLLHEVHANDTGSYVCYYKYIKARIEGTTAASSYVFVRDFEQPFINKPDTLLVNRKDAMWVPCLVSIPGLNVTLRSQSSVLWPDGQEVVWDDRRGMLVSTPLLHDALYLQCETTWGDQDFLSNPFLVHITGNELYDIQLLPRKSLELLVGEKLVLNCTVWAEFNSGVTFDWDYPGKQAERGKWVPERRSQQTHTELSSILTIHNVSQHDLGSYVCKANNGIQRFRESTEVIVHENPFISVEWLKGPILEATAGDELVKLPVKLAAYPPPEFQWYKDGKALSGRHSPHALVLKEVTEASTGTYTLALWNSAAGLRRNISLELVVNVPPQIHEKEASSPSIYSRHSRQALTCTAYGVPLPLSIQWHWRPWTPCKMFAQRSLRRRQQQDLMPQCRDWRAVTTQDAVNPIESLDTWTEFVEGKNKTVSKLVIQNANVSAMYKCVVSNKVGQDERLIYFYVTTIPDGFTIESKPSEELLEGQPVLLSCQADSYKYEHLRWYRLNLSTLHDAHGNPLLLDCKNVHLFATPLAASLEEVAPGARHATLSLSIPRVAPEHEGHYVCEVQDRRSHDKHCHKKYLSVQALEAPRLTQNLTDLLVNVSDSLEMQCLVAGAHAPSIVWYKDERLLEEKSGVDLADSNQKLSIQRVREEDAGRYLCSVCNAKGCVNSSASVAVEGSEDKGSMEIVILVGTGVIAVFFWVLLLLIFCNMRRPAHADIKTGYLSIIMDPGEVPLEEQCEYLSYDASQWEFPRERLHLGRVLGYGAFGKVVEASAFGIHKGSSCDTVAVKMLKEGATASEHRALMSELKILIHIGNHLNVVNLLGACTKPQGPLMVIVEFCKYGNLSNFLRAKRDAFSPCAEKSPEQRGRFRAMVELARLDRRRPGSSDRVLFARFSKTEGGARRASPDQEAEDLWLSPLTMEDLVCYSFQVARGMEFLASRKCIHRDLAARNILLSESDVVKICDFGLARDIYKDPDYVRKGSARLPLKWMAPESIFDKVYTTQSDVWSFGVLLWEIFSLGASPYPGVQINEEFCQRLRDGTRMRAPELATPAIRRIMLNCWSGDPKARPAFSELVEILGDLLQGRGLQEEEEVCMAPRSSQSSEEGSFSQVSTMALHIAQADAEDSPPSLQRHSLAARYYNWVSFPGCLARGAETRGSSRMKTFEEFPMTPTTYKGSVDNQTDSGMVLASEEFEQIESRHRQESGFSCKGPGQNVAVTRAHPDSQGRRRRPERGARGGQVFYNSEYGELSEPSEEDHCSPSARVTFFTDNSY

Sequence of Signal transducer and activator of transcription 3 (Homo sapiens) (P40763 whole entry): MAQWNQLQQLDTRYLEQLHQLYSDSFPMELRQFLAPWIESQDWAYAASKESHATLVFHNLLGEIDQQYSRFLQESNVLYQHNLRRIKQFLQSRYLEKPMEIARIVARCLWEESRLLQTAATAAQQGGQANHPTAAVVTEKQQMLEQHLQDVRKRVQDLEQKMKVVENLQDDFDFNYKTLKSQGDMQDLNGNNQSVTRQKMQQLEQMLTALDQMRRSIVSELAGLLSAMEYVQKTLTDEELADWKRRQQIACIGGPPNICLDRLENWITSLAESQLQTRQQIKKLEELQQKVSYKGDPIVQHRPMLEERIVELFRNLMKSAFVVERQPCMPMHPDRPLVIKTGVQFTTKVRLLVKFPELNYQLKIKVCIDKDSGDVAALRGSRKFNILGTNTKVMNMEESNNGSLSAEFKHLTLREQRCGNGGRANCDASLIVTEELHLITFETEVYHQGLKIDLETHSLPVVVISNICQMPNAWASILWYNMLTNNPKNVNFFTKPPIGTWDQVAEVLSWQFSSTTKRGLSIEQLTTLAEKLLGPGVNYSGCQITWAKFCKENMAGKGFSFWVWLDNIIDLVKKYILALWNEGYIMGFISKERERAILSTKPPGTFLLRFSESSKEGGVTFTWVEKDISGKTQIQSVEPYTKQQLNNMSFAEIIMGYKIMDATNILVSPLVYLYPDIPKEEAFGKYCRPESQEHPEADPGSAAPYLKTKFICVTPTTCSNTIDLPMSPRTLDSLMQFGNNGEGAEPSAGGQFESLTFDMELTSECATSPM
Sequence of Vascular endothelial growth factor receptor 1 (P17948 whole entry): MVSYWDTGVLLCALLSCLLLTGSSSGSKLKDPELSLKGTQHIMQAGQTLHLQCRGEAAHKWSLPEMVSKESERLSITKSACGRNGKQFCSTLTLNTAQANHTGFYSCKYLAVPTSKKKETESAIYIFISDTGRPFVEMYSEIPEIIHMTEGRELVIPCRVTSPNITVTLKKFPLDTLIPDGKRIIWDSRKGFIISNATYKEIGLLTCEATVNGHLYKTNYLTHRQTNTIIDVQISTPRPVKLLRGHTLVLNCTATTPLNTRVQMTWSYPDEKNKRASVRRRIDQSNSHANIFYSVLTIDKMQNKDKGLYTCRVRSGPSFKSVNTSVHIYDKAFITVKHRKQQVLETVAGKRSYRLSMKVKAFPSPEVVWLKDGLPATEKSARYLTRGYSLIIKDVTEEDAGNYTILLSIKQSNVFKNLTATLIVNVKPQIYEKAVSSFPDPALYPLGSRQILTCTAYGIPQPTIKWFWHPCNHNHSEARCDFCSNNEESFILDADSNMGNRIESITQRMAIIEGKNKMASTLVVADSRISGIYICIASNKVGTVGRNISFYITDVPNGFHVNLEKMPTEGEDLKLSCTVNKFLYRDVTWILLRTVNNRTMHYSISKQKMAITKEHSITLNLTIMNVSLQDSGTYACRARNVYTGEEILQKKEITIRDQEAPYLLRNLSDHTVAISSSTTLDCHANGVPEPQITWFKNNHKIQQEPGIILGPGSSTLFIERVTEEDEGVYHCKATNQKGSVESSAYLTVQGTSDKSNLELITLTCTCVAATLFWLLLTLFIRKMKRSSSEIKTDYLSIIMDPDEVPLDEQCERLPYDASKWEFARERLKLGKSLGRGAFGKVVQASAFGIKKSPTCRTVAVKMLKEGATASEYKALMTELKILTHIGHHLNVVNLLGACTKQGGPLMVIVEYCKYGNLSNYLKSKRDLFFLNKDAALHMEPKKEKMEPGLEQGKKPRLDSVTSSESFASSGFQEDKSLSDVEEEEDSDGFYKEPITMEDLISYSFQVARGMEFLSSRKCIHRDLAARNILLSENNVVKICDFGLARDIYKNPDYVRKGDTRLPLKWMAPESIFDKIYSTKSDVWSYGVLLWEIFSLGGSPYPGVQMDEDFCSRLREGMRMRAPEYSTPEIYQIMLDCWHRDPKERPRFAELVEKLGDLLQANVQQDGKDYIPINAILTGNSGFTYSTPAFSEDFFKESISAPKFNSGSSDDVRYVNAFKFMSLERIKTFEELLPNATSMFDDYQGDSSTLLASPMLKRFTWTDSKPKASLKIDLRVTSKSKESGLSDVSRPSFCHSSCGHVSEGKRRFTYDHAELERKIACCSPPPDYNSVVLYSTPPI

Row | Structure (SMILES) | IC50 [2] [µM] | IC50 [3] [µM] | IC50 [4] [µM] | also measured
1 | O=C(Nc1ccc(-n2ncc3c(Br)cccc32)cc1)Nc1ccc(Cl)c(C(F)(F)F)c1 | – | – | – | IC50 [1]: 3.43 µM
2 | CCN1CCC(=O)/C(=C/c2ccc(OC3CCCC3)cc2)C1 | 13.7 | 9.1 | 13 | –
3 | O=C1CCCC/C1=C\c1ccc(OC2CCCC2)cc1 | 49.4 | 71.1 | 55.4 | –
4 | O=C(Nc1ccc(Cl)cc1)Nc1ccc(Oc2ncnc3cc(F)ccc23)cc1 | – | – | – | IC50 [5]: 8.08 µM; IC50 [6]: 10.6 µM
5 | Cc1ccc(C(=O)/C=C/c2ccc(OC3CCCC3)cc2)cc1 | 36.4 | 17.1 | 20 | –
6 | Cc1ccc(C2=NN(c3ccccc3)C(c3ccc(OC4CCCC4)cc3)C2)cc1 (stereo unspecified) | 5.6 | 7.8 | 7.2 | –
7 | O=C1CCCCC/C1=C\c1ccc(OC2CCCC2)cc1 | 64.7 | 26.9 | 71.3 | –
8 | COc1cc2nccc(Oc3ccc(NC(=O)NC4CC4)c(Cl)c3)c2cc1C(N)=O [LENVATINIB] | – | – | – | IC50 [7]: 0.022 µM
9 | CN1CCC(=O)/C(=C/c2ccc(OC3CCCC3)cc2)C1 | 18.1 | 10.5 | 15.9 | –
10 | O=C(Nc1ccc(-n2ncc3cc(C(F)(F)F)ccc32)cc1)Nc1ccc(C(F)(F)F)cc1 | – | – | – | IC50 [8]: 4.34 µM
11 | O=C1CCC/C1=C\c1ccc(OC2CCCC2)cc1 | > 100 | 94.1 | > 100 | –
12 | Cc1ccc(NC(=O)C2(C(=O)Nc3ccc(C)c(Oc4ccc(C#N)cc4)c3)CC2)cc1Oc1ccc(C#N)cc1 | – | – | – | Activity [9]: 4.5%; Activity [10]: 80%; Activity [11]: 2.5%; Activity [12]: 2%
13 | COc1cc2nccc(Oc3ccc(NC(=O)C4(C(=O)Nc5ccc(F)cc5)CC4)cc3)c2cc1OC [CABOZANTINIB] | – | – | – | IC50 [13]: 0.006 µM
14 | Cc1ccc(NC(=O)Nc2ccc(C)c(Oc3ccc(C#N)cc3)c2)cc1Oc1ccc(C#N)cc1 | – | – | – | Activity [9]: 17.5%; Activity [10]: 40%; Activity [11]: 17.5%; Activity [12]: 22.5%
15 | CC(=O)/C=C/c1ccc(OC2CCCC2)cc1 | 40.9 | 21.8 | 27.3 | –
16 | CCOC(=O)C1=C(C)OC(N)=C(C#N)C1c1ccc(OC2CCCC2)cc1 (stereo unspecified) | 7.5 | 13.3 | 8 | –
